Measurements published in US20250368687A1, “SHORT SYNTHETIC PEPTIDES AND USES THEREOF IN THE TREATMENT OF ENTEROVIRUS INFECTION” (CITY UNIVERSITY OF HONG KONG, priority 2024, published 2025).

Test system: EV-A71 IRES activity
Assay: Dual-luciferase IRES reporter assay in RD cells
Format: cell-based
Settings: 2 μM for 2 h, RD cells co-transfected with 2Apro and pIRES reporter plasmids 24 h
Experimental: FIGS. 6A-6C Ser78 phosphorylation-deficient Hsp27 suppresses the viral IRES activity. (FIG. 6A) RD cells were pretreated with 2 μM SB203580 for 2 h, then co-transfected with a 2A^pro-expressing plasmid (200 ng) and pIRES reporter plasmid (200 ng) for 24 h, then the luciferase activity was measured. (FIG. 6B) HEK 293T cells were co-transfected with Hsp27 (WT, 3A, S15A, S78A, and S82A) plasmid (800 ng), pIRES reporter plasmid (200 ng) and 2A^pro-expressing plasmid (200 ng) for 24 h, then the luciferase activity was measured. (FIG. 6C) HEK 293T cells were co-transfected with Hsp27 (WT, 3A, S15A, S78A, 3D S15D, and S78D) plasmid (800 ng), pIRES reporter plasmid (200 ng) and 2A^C110A-expressing plasmid (200 ng) for 24 h, then the luciferase activity was measured. Statistical analyses were carried out using Student's t-test. *: p<0.05, **: p<0.01, ***: p<0.001. Data are expressed as mean ±SD.
HEK 293T cells were seeded in 24-wells, and then co-transfected with plasmids to simultaneously express 2A^pro (200 ng), pIRES reporter (200 ng), and the wild-type Hsp27 or its mutants (800 ng). […] The Renilla luciferase (RLuc) and Firefly luciferase (FLuc) activity were determined by using a dual-luciferase reporter assay (Promega) according to the manufacturer's instructions in a Lumat LB9507 bioluminometer. […]

C[S+]([O-])c1ccc(-c2nc(-c3ccncc3)c(-c3ccc(F)cc3)[nH]2)cc1 (stereo not shown) [SB203580, reference compound]
reduction of IRES activity: 32%
